In patent publication US20070275936A1, “Formulations and Treatment Methods” (priority 1998, published 2007):

Experiments:
[1] = tested on: Chloroquine sensitive T996/86 P. falciparum; assay: In vitro antimalarial testing (schizont inhibition / 3H-hypoxanthine incorporation); type: cell-based; conditions: Plasmodium falciparum, T996
Method: For in vitro antimalarial testing, micro-titer plates were used. The concentration of drugs were prepared as pMol/well according to WHO standard procedures (WHO, 1990). The test compound was dissolved in 15% DMSO in sterile RPMI-1640. Both chloroquine sensitive (e.g., WS/97) and resistant (e.g., MN/97) isolates of Plasmodium species are used.
A schizont inhibition assay was performed as follows. The micro-titer plates were predosed with various concentrations of the test compound. 50 μL of parasitised erythrocyte suspension in RPMI-1640 (0.2 mL erythrocyte+0.3 mL serum+4-5 ml RPMI-1640) were dispensed in microtiter wells that contained various concentrations of drug. Triplicate readings were made for each concentration.
A ^3H-hypoxanthine incorporation assay was performed as follows. The testing was carried out according to the procedure of Desjardins et al. 1979. After 30 hr culture at 37 degrees C., the same microtiter plates from schizont inhibition assays with another triplicate wells were pulsed with ^3H-hypoxanthine for overnight. The cell suspensions were washed twice on millipore glass fiber filter with Millipore filter apparatus. The filter discs were counted for DPM by a Beckman LS6000 β-scintillation counter. The activity of the drug was measured by plotting DPM against concentration of drug.

[2] = tested on: Circulating Hematologic Elements; assay: Human HIV clinical protocol: hematology; type: in vivo
Method: Otherwise untreated patients with CD4 counts of ≧200/μL and HIV-1 viral RNA between 5,000 and 1,000,000 copies/mL (branched-DNA, version 3.0, Bayer, Tarrytown, N.Y.) provided informed consent and were enrolled into a Phase I/II dose-escalation study of the safety and efficacy of intramuscular injections of BrEA. The protocol was conducted in South Africa. In the first cohort, four patients received an initial injection of 1 mL (50 mg), followed by a safety and pharmocokinetic study for seven days, and then received five daily injections of 1 mL (50 mg). The second cohort of 8 patients was randomized in a 1:2 ratio to receive either 50 mg (1 mL) or 100 mg (2 mL) on the same schedule. Patients were allowed at the discretion of the investigators to receive up to three additional courses each, repeated after 28 days of observation. The protocol was amended to introduce an improved formulation, and to extend the initial pharmacokinetic and safety period to 14 days, the observation period following the five daily doses to 35 days, and to allow up to 7 treatment courses. A third cohort of 24 patients was randomized in a 1:2:4 ratio to receive either 50 mg (0.5 mL), 100 mg (1 mL), or 200 mg (2 mL) of BrEA. The patients were all male, since initial safety studies are not permitted in females in South Africa. Within the group of 39 patients randomized, the ethnic demographic included was 18 Caucasian, 17 African, and 4 other. The average age was 34 (range 20-63), the average initial CD4/μL was 434 (range 176-1210), and the average viral load was 13,772 copies/mL (range 3,020-158,489). Patients underwent physical examinations and provided samples for chemistry, hematology, virology and immunology testing approximately every two weeks.
The CD4^+ cell frequency was determined using the FACSCount test. The absolute frequency of a CD8^+ cell subset was calculated in a similar fashion. The absolute white blood cell (WBC) count was determined using an automated cell counter (Advia 120, Bayer, Tarrytown, N.Y.). The nucleated cell region was defined using a forward versus orthogonal scatter plot. The absolute frequency per μL of CD3^− Natural Killer or Dendritic Cell subsets (F) was estimated by the equation: F=(proportion of nucleated cells)×(absolute WBC count per μL).
Statistical analysis of changes in surface phenotypes, hematological, and viral parameters were performed by calculating the area under the curve (AUC) of the percentage difference from baselines (phenotype), percentage difference from the mean of screen and baseline values (hematology), or log10 change from the mean of screen and baseline values (plasma viral RNA) for individual patients. AUC were calculated using the actual number of days between analysis visits for each patient. Because patients were on study for varying periods of time, this value was normalized to the time-averaged AUC by dividing by the number of days of observation. The Student's t-test was then used to analyze the difference from zero for the AUCs from all patients with data available for each parameter. A significant increase in the AUC for the entire 5-month period was interpreted as a nonrandom change in the given parameter.
For these reasons, the time-averaged AUC values for the 5-month period underestimate the magnitude of the individual responses. Maximal individual patient responses were calculated as the mean of the maximal percentage changes from baselines for individual patients at any analysis visit after dosing.
To investigate the kinetics of the responses for the entire population related to the time after dosing, the maximum analysis visit responses were calculated as the average of the maxima of the mean percentage changes from baselines for each analysis visit. Due to the altered BrEA administration interval for cohort 3, the analysis visits were aligned relative to the last dosing visit.

Compound: C[C@]12CC[C@H](O)C[C@@H]1CC[C@@H]1[C@@H]2CC[C@]2(C)C(=O)[C@H](Br)C[C@@H]12 [BrEA, 16α-bromo-3β-hydroxy-5α-androstane-17-one]
- IC50 [1]: 7.5 µM
- inhibition at 0.938 µM [1]: 31.8%
- inhibition at 1.875 µM [1]: 40.9%
- inhibition at 3.25 µM [1]: 43.7%
- inhibition at 7.5 µM [1]: 50%
- inhibition at 15 µM [1]: 60.1%
- inhibition at 30 µM [1]: 98%
- Eosinophils: Maximum Analysis Visit Responses Mean ([2]; analysis visit day 22): 129% (22)
- WBC: Maximum Analysis Visit Responses Mean ([2]; analysis visit day 81): 23% (81)
- Basophils: Maximum Analysis Visit Responses Mean ([2]; analysis visit day 126): 113% (126)
- Eosinophils: Maximum Individual Patient Responses Mean (range) ([2]; change from baseline, n=33): 110% (−37 to 656%)
- Basophils: Maximum Individual Patient Responses Mean (range) ([2]; change from baseline, n=37): 182% (−20 to 1,100%)
- Monocytes: Maximum Individual Patient Responses Mean (range) ([2]; change from baseline, n=37): 60% (−14 to 189%)
- Neutrophils: Maximum Individual Patient Responses Mean (range) ([2]; change from baseline, n=37): 67% (−25 to 297%)
- Platelets: Maximum Individual Patient Responses Mean (range) ([2]; change from baseline, n=37): 31% (0 to 122%)
- WBC: Maximum Individual Patient Responses Mean (range) ([2]; change from baseline, n=37): 36% (−1 to 159%)
- WBC: Time-averaged AUC Increase Mean ± SEM ([2]; i.m. BrEA, HIV patients, n=37, p=0.132): 4.4 ± 3%
- Eosinophils: Time-averaged AUC Increase Mean ± SEM ([2]; n=33, p=0.086): 20 ± 11%
- Platelets: Time-averaged AUC Increase Mean ± SEM ([2]; n=37, p<0.001): 7 ± 2%
- Basophils: Time-averaged AUC Increase Mean ± SEM ([2]; n=37, p=0.001): 42 ± 12%
- Neutrophils: Time-averaged AUC Increase Mean ± SEM ([2]; n=37, p=0.009): 11 ± 4%
- Monocytes: Time-averaged AUC Increase Mean ± SEM ([2]; n=37, p=0.029): 10 ± 5%

Compound: C[C@]12CC[C@H](O)CC1=CC[C@@H]1[C@@H]2CC[C@]2(C)C(=O)CC[C@@H]12 [DHEA, dehydroepiandrosterone, reference compound]
- IC50 [1]: 19 µM
- inhibition at 0.938 µM [1]: 37.2%
- inhibition at 1.875 µM [1]: 23.2%
- inhibition at 3.25 µM [1]: 37.2%
- inhibition at 7.5 µM [1]: 38.3%
- inhibition at 15 µM [1]: 44%
- inhibition at 30 µM [1]: 65.6%
